Values of other authors as cited in patent US10603302B2, “Water soluble flavonoids” (priority 2017, dated 2020).

Conditions: background statement

- solubility in water: slightly soluble in water
SMILES: O=C1c2c(O)cc(O)cc2OC(c2ccc(O)c(O)c2)C1O (stereo not shown) [Taxifolin, 5,7,31,41-tetrahydroxyflavanol,dihydroquercetin]
